{"source": "patent US20050187181A1", "about": "(University of Maryland, priority 2004, published 2005)", "key": {"[1]": {"tested_on": "rats in severe hemorrhagic shock", "assay": "Rat shock model for adenosine experiments (0.5 mM adenosine resuscitation)", "type": "in vivo", "description": "It was hypothesized that stimulation of Na/K ATPase with adenosine may reverse, alleviate or attenuate the effects of an endogenous inhibitor that appears during hemorrhagic shock. […] Blood samples (0.5 ml) were taken before hemorrhage, before resuscitation and 1 hr after resuscitation for measurement of plasma K and Na.\nAll animal procedures are conducted with the authorization of the Institutional Animal Care and Use Committee at the University of Maryland, School of Medicine. […] Blood samples (0.5 ml) were taken before hemorrhage, before resuscitation and 1 hr after resuscitation for measurement of plasma K and Na. Blood was centrifuged 3500 rpm for 2 min, plasma removed and K and Na was measured by flame photometer. Before and after resuscitation potassium (K) was analyzed by Newman Keul post hoc test after ANOVA."}, "[2]": {"tested_on": "rats in severe hemorrhagic shock", "settings": "for effect on shock-elevated plasma K^+: 0.5 hr; for Plasma K^+ 0.5 hr after Resuscitation: mean ± SE, N = 7/group; for survival compared to saline and cytidine controls (Kaplan-Meier): single dose of 2.5 mM in saline, 8 rats/group, p<0.001", "experimental": "Pentobarbital-anesthetized rats were subjected to severe hemorrhagic shock. Five groups of eight rats were resuscitated.\nPlasma K^+ was measured from plasma taken before hemorrhage, before resuscitation and 0.5 hrs after resuscitation using a K^+ electrode (Jenco Electronics, Inc., San Diego, Calif.). Survival time between groups was compared by Kaplan-Meier survival Analysis."}, "Na/K ATPase": {"tested_on": "Na/K ATPase", "assay": "Na/K ATPase assay (86Rb uptake into red blood cells);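 for all read-outs here: washed human red blood cells in K-free Ringer, test agent preincubated 20 min, then 86Rb uptake over 4 h at 37 °C counted as CPM per tube versus water control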", "settings": "for relative effectiveness at stimulating Na/K ATPase: 10^-3 Molar (FIG. 8); for stimulation of Na/K ATPase: human red blood cells, dose response (FIG. 3b, FIG. 8); for stimulation of Na/K ATPase in the presence of ouabain: partial inhibition / sub maximal doses of ouabain (FIG. 9)", "experimental": "Human red blood cells of any group-type were donated for research by the Blood Bank of the University Of Maryland, School of Medicine. Five ml of red cells are washed 3 times in 40 ml of Potassium free Ringers solution (141 mM NaCl, 1 mM H2NaPO4, 0.5 mM CaCl2, 1 mM MgSO4, 4.5 mM glucose, 10 mM HEPES pH7.4). 50 μl of washed red cells are added to 220 μl of potassium free Ringers solution. 30, 10, 3 or 1 μl of ultra-filtrate, HPLC (high performance liquid chromatography) fraction, or adenosine, inosine, guanosine, deoxyadenosine, deoxyguanosine, caffeine, aminophylline, dipyridamole, NBTI, 6thioinosine, 6thioguanosine, or EHNA (all in buffer) is added to the mixture and incubated for 20 min. 4 μCi of 86RbCl is added and incubated for 4 hrs at 37° C. The mixture is than washed three times with 4° C. Potassium free Ringers solution and the cells counted in a gamma counter (Packard, Cobra II). Na/K ATPase activity is expressed as the CPM (counts per minute) (CPM/tube*4 hrs). The effects of ultra-filtrate or HPLC fractions on ^86Rb uptake into red cells are compared to equal volumes of either water (control) or, in some cases, 0.01 mM Ouabain (maximal inhibition)."}, "[3]": {"tested_on": "rat in endotoxic shock (LPS)", "assay": "Endotoxic shock (LPS 10 mg/kg iv) with intravenous inosine infusion", "type": "in vivo", "description": "Pentobarbital-anesthetized (50 mg/kg) rats (380-420 g) had cannulas placed in their femoral artery and vein. Arterial Blood pressure was monitored via the femoral artery cannula. After 15 minutes of stabilization, the rats were injected with 10 mg/kg of lipopolysaccharide (LPS, Sigma Aldrich, serotype 026:B6) in saline via the femoral vein. At the same time, an infusion of saline or inosine (5 mM) in saline or no infusion was begun (5 ml/hr) via the femoral vein cannula. A 5 mM solution of inosine is […]. Arterial pressure and heart rate were monitored throughout the procedure. Survival time was recorded. Supplemental doses (15 mg/kg) of pentobarbital were given via the femoral vein cannula every hour. Rats surviving beyond 8.5 hr had their cannulas removed and were allowed to recover from pentobarbital anesthesia. These rats lived till 48 hours at which time we terminated the experiment. Inosine was administered at a rate of 1.34 mg/ml at 5 ml/hour for 5 hours which is a total of 33.5 mg for 5 hours. In 400 gram rats that is a total of about 83.75 mg/kg over the 5 hour period; 16.75 mg/hr or 402 mg/day."}, "[4]": {"tested_on": "murine model of colitis (DSS)", "settings": "cited from earlier work"}, "[5]": {"tested_on": "septic shock induced by cecal ligation and puncture (CLP)", "settings": "cited from earlier work"}, "[6]": {"tested_on": "lipopolysaccharide-induced shock", "settings": "cited from earlier work"}, "[7]": {"settings": "human blood; cited from earlier work"}, "[8]": {"settings": "water; cited from earlier work"}}, "note": "Entries after “also recorded” stand apart in the source; their conditions may differ. Read-outs that look alike come from different tables or passages of the source."}
{"smiles": "Nc1ncnc2c1ncn2[C@@H]1O[C@H](CO)[C@@H](O)[C@H]1O", "note": "[adenosine]", "values": [{"measurement": "plasma K after resuscitation", "setting": "[1]; 1 hr after resuscitation, 0.5 mM", "value": "recovery of plasma K to prehemorrhage levels by 1 hr"}, {"measurement": "survival", "setting": "[1]; at about 70 minutes after resuscitation, 0.5 mM", "value": 100, "unit": "%"}, {"measurement": "survival", "setting": "[1]; at about 160 minutes, 0.5 mM", "value": "about 25%"}, {"measurement": "survival", "setting": "[1]; from 70 to 120 minutes, 0.5 mM", "value": 85, "unit": "%"}, {"measurement": "bradycardia", "setting": "[1]; shocked rats, 0.5 mM infusion (about 3 to 4.5 mg/kg)", "value": "caused bradycardia"}, {"measurement": "survival compared to saline alone (Kaplan-Meier)", "setting": "[1]; single dose 0.5 mM in saline, infusion volume equal to blood lost, p<0.01", "value": "significantly prolonged survival"}, {"measurement": "effect on shock-elevated plasma K^+", "setting": "[2]; 2.5 mM in saline", "value": "lowered the shock-elevated plasma K^+"}, {"measurement": "Plasma K^+ 0.5 hr after Resuscitation", "setting": "[2]; 2.5 mM in saline", "value": "3.10 ± 0.20", "unit": "mM"}, {"measurement": "survival compared to saline and cytidine controls (Kaplan-Meier)", "setting": "[2]", "value": "survived significantly longer than saline or cytidine controls; also recorded: significantly increased survival; also recorded: survived significantly longer"}, {"measurement": "relative effectiveness at stimulating Na/K ATPase", "setting": "Na/K ATPase", "value": "more effective at stimulating Na/K ATPase than guanosine and inosine"}, {"measurement": "stimulation of Na/K ATPase", "setting": "Na/K ATPase", "value": "stimulated Na/K ATPase in a dose-dependent manner"}, {"measurement": "stimulation of Na/K ATPase in the presence of ouabain", "setting": "Na/K ATPase", "value": "this stimulation occurs even in the presence of ouabain"}]}
{"smiles": "OC[C@H]1O[C@@H](n2cnc3c(O)ncnc32)[C@H](O)[C@@H]1O", "note": "[inosine]", "values": [{"measurement": "survival compared to saline or no-resuscitation groups (Kaplan-Meier)", "setting": "[3]; continuous infusion 5 ml/hr of 5 mM for 5 hrs", "value": "survived significantly longer than the saline or no-resuscitation groups"}, {"measurement": "survival / success in resuscitating rats fully", "setting": "[3]; iv infusion 5 mM, 5 ml/hr, 5 hours, observed to 48 hours", "value": 100, "unit": "%"}, {"measurement": "bradycardia on resuscitation from hemorrhagic shock", "setting": "[2]; 2.5 mM in saline", "value": "did not cause the bradycardia"}, {"measurement": "time to 50% mortality", "setting": "[2]; 2.5 mM in saline", "value": "about 100 minutes"}, {"measurement": "time to 100% mortality", "setting": "[2]; 2.5 mM in saline", "value": "about 150 minutes"}, {"measurement": "effect on shock-elevated plasma K^+", "setting": "[2]; 2.5 mM in saline", "value": "lowered the shock-elevated plasma K^+"}, {"measurement": "Plasma K^+ 0.5 hr after Resuscitation", "setting": "[2]; 2.5 mM in saline", "value": "2.93 ± 0.21", "unit": "mM"}, {"measurement": "adverse effects on resuscitation from hemorrhagic shock", "setting": "[2]; rat, in vivo", "value": "without any adverse effects"}, {"measurement": "survival compared to saline and cytidine controls (Kaplan-Meier)", "setting": "[2]", "value": "survived significantly longer"}, {"measurement": "survival compared to saline and cytidine controls (Kaplan-Meier)", "setting": "[2]; listed as Inosine", "value": "survived significantly longer than saline or cytidine controls; also recorded: significantly increased survival"}, {"measurement": "mortality", "setting": "[4]; oral inosine from day one, by day 30", "value": 60, "unit": "%"}, {"measurement": "protection of colon", "setting": "[4]; oral inosine", "value": "protected the colon from DSS induced inflammatory cell infiltration and lipid peroxidation"}, {"measurement": "organ damage", "setting": "[5]; 100 mg/kg IP x3", "value": "significantly reduced"}, {"measurement": "survival", "setting": "[5]; 100 mg/kg IP x3", "value": "significantly improved"}, {"measurement": "mortality", "setting": "[5]; post-treatment protocol, 100 mg/kg IP x3, at 24 hours", "value": "about 20%"}, {"measurement": "mortality", "setting": "[5]; post-treatment protocol, at 120 hours", "value": "about 90%"}, {"measurement": "mortality", "setting": "[5]; post-treatment protocol, by 48 hours", "value": "about 80%"}, {"measurement": "mortality", "setting": "[5]; pre-treatment protocol, 100 mg/kg IP x3, by 24 hours", "value": 15, "unit": "%"}, {"measurement": "mortality", "setting": "[5]; pre-treatment protocol, by 48 hours", "value": "about 70%"}, {"measurement": "mortality", "setting": "[5]; pre-treatment protocol, by 120 hours", "value": "about 75%"}, {"measurement": "mortality", "setting": "[6]; single IP 100 mg/kg 30 minutes before LPS 70 mg/kg IP, at 36 hours", "value": 19, "unit": "%"}, {"measurement": "mortality", "setting": "[6]; single IP 100 mg/kg before LPS, at 60 hours", "value": 37.5, "unit": "%"}, {"measurement": "mortality", "setting": "[6]; single IP 100 mg/kg before LPS, by 96 hours", "value": 50, "unit": "%"}, {"measurement": "survival compared to untreated mice", "setting": "[6]; single IP 100 mg/kg before LPS", "value": "prolonged survival compared to untreated mice"}, {"measurement": "half life", "setting": "[7]", "value": "< 1", "unit": "s"}, {"measurement": "solubility", "setting": "[8]", "value": "highly soluble in water"}, {"measurement": "relative effectiveness at stimulating Na/K ATPase", "setting": "Na/K ATPase", "value": "both equally effective"}, {"measurement": "stimulation of Na/K ATPase", "setting": "Na/K ATPase", "value": "stimulated Na/K ATPase in a dose-dependent manner"}, {"measurement": "stimulation of Na/K ATPase in the presence of ouabain", "setting": "Na/K ATPase", "value": "overcame partial inhibition by ouabain"}]}
